The subject of one series is OleTJE L176I. Briefly: Fatty acid bioconversion with H2O2 as co-substrate (alkene by GC-MS, hydroxy products by HPLC-MS). The series is classed as biochemical, Jeotgalicoccus sp. 8456. The note with it: for Decarboxylation activity of OleTJE L176I compared to that of OleTJE wild type: 200 μM substrate, 400 μM H2O2. The procedure: A reaction was typically quenched by adding 2-fold reaction volume of ethyl acetate which contained 30 μM of tetradecane as an internal standard. The reaction mixtures were vortexed for 1 min and then centrifuged at 12,000 rpm, 4 °C for 10 min to separate an organic and an aqueous phase. The organic phase was injected into an Agilent gas chromatography system (GC-MS) (Agilent 7890B equipped with Agilent 5977B MSD) equipped with a HP5-MS column (30 m × 0.25 mm × […]) (Agilent), and helium was used as a carrier gas. The oven conditions for C10FA and 1-nonene (C9 alkene) were ramped up from 60 to 240 °C with a rate of 19 ° C min^−1 and held at 240 °C for 1 min. […] For C18FA and 1-heptadecene (C17 alkene), the oven was ramped up from 60 to 250 °C with a rate of 22 °C min^−1 and hold at 250 °C for 4 min. For C20FA and 1-nonadecene (C19 alkene), the oven was ramped up from 100 to 250 °C with a rate of 23 °C min^−1 and held at 250 °C for 6 min. The response of target compounds was normalized with signals of the internal standard. The concentration of each compound was calculated based on a standard calibration curve.
For analyzing hydroxylated products of fatty acids, the reactions were quenched by adding an equal volume of acetonitrile, centrifuged, and filtrated. The analytes (10 μl) were injected into a liquid chromatography coupled with diode array and single quadrupole mass spectroscopy detection (LC-DAD/MS) (Agilent 1290 Infinity II LC System equipped with DAD, Single Quadrupole Mass Spectrometers system). A Zorbax eclipse plus C18 column (5 μm, 4.6 × 250 mm) (Agilent Technology) was used for separation. The mobile phase system A was water with 0.1% (v/v) formic acid, and system B was acetonitrile with 0.1% (v/v) formic acid.
All fatty acids were prepared in absolute EtOH at 20 mM as stock solutions. The reaction was carried out in 50 mM NaH2PO4 buffer with 300 mM NaCl, pH 7.5, with 2.5 or 10% (v/v) of EtOH, 200 μM of a substrate, and 400 μM of H2O2. The reactions were performed at 25 °C for 1 h, and then the alkene product was measured using GC-MS after the reactions were quenched and extracted with two-fold volume of ethyl acetate.
Site-directed mutagenesis of I178L of OleTLA and […] of OleTJE was done with overlaping PCR that used OleTLA or OleTJE plasmids as templates (Table S4). The PCR products were treated with DpnI in cut smart buffer at 37 °C for 16 h, transformed into E. coli XL−1 blue competent cells and grown at 37 °C on LB agar containing 50 μg/ml ampicillin. The plasmids of selected colonies were extracted for sequence verification. The plasmid containing the correct sequence was transformed into E. coli BL21 (DE3) for enzyme expression. The expression and purification methods of variants were the same as those of wild-type OleTLA and OleTJE.

Series [1] concerns Escherichia coli BL21 (DE3) cells co-transformed with pGro7, FdR/FdX system, and OleTLA or OleTJE. Briefly: In vivo bioconversion of C16FA with the FdR/FdX redox partner system. The format is cell-based. Conditions: 128.22 mg/L of C16FA added, cells overexpressing OleTLA and OleTJE. The procedure: The pRSFDuet−1 vector containing FdR/FdX and OleTLA or OleTJE was transformed into competent E. coli BL21 (DE3) containing a pGro7 plasmid. The transformed cells were incubated in LB broth at 37 °C, 220 rpm for 1.5 h, spread on LB agar with ampicillin (50 μg/ml), kanamycin (34 μg/ml), and chloramphenicol (20 μg/ml), and incubated at 37 °C for overnight. A single colony was inoculated into a starter culture in an auto-induction medium with appropriate antibiotics and 1% (w/v) of glucose. The culture was then incubated at 37 °C, 220 rpm overnight. Then, 1% (v/v) of the starter was inoculated into the auto-induction medium in the presence of ammonium iron (III) citrate (20 ug/ml), L-arabinose (2 mg/ml), ampicillin (50 μg/ml), kanamycin (34 μg/ml), and chloramphenicol (20 μg/ml), hemin (0.05 mM) and δ-ALA (0.5 mM) and then grown at 37 °C, 220 rpm until OD600 reached about 0.8 to 1.0. […] At a specific time point, the culture medium was sampled and extracted by adding two-fold ethyl acetate with tetradecane as an internal standard. The mixture was vortexed and centrifuged at 4 °C for 10 min. The organic phase was collected and injected into the GC-MS system.

The nature of series [2]: Thermofluor assay of enzyme melting temperature. The format is physicochemical. Conditions: reductase enzymes of the redox partner systems (Fig. S16). The procedure:
The reactions containing 10 μM of enzyme, 25X of SYPRO Orange Protein Gel Stain solution in 25 μl of a storage buffer were carried out in a CFX96 Real-Time (Bio-Red) Thermal Cycle. The temperature of the experiments was raised from 30 to 80 °C at a continuous rate of 1 °C min^−1. The temperature at which half of the total amount of protein transitioned into an unfolded form is designated as the melting temperature.
For orientation: DSF heats the sample and reads unfolding from a dye or from intrinsic fluorescence.

On to `CCCCCCCCCC(=O)O` [C10FA, decanoic acid], for which the “Decarboxylation activity of OleTJE L176I compared to that of OleTJE wild type” value with OleTJE L176I is reported as “less than 1%”.

Turning to `CCCCCCCCCCCC(=O)O` [C12FA, dodecanoic acid], the “Decarboxylation activity of OleTJE L176I compared to that of OleTJE wild type” value in the series on OleTJE L176I is listed as “less than 1%”.

Turning to `C=CCCCCCCCCCCCCC` [C15 alkene, 1-pentadecene], the C15 alkene produced in series [1] (after 24 h) is 0.42 mg/L; in series [1] (after 48 h) it was “around 1.26 mg/L”.

As to `CCCCCCCCCCCCCCCCCC(=O)O` [C18FA, octadecanoic acid], in the series with OleTJE L176I, the “Decarboxylation activity of OleTJE L176I compared to that of OleTJE wild type” value is “less than 5%”.

`CCCCCCCCCCCCCCCCCCCC(=O)O` [C20FA, icosanoic acid]: the “Decarboxylation activity of OleTJE L176I compared to that of the wild-type enzyme” value in the series on OleTJE L176I (2.5% (v/v) EtOH) was found to be 37%; with OleTJE L176I (10% (v/v) EtOH), 23%.

B1: FdR: ferredoxin reductase, redox partner, gene from Escherichia coli K-12 (protein, UniProt P28861 2-248, looked up)
Flavodoxin/ferredoxin--NADP …: ADWVTGKVTKVQNWTDALFSLTVHAPVLPFTAGQFTKLGLEIDGERVQRAYSYVNSPDNPDLEFYLVTVPDGKLSPRLAALKPGDEVQVVSEAAGFFVLDEVPHCETLWMLATGTAIGPYLSILQLGKDLDRFKNLVLVHAARYAADLSYLPLMQELEKRYEGKLRIQTVVSRETAAGSLTGRIPALIESGELESTIGLPMNKETSHVMLCGNPQMVRDTQQLLKETRQMTKHLRRRPGHMTAEHYW
Turning to B1, in series [2], the Tm is 60 °C.

B2: CamA: putidaredoxin reductase, known redox partner, from Pseudomonas putida (protein, UniProt P16640 1-422, looked up)
Putidaredoxin reductase CamA: MNANDNVVIVGTGLAGVEVAFGLRASGWEGNIRLVGDATVIPHHLPPLSKAYLAGKATAESLYLRTPDAYAAQNIQLLGGTQVTAINRDRQQVILSDGRALDYDRLVLATGGRPRPLPVASGAVGKANNFRYLRTLEDAECIRRQLIADNRLVVIGGGYIGLEVAATAIKANMHVTLLDTAARVLERVTAPPVSAFYEHLHREAGVDIRTGTQVCGFEMSTDQQKVTAVLCEDGTRLPADLVIAGIGLIPNCELASAAGLQVDNGIVINEHMQTSDPLIMAVGDCARFHSQLYDRWVRIESVPNALEQARKIAAILCGKVPRDEAAPWFWSDQYEIGLKMVGLSEGYDRIIVRGSLAQPDFSVFYLQGDRVLAVDTVNRPVEFNQSKQIITDRLPVEPNLLGDESVPLKEIIAAAKAELSSA
For B2, in series [2], the Tm amounted to 50 °C.
